# Experimental data reported in patent US9834514B2, “Antibiotic sensitivity-restoring and photosensitive agents” (New Mexico Tech Research Foundation, priority 2015, dated 2017).
# Read-outs that look alike come from different tables or passages of the source.
# Legend:
# S. pyogenes ATCC 8133 = assay: Resensitization to antibiotics (log reduction, TABLE 29); type: cell-based; details: compound 1 μM; Light (2 min)
# E. coli = assay: Checkerboard assay (FICI); type: cell-based; details: with PMB
# Experimental: (§1) Another method for determining synergy is a checkerboard assay. A checkerboard assay is performed whereby one of the test compounds is serially diluted horizontally across a plate, while the other test compound is serially diluted vertically down the plate. The perpendicular serial dilutions result in combinations of the compounds that range in concentrations from the highest to the lowest of each compound added. In the present study, the checkerboard assay method was adjusted by serially diluting one of the test compounds horizontally and adding the second drug to each well at a concentration of ¼ MIC. The 24-well microtiter plate was then incubated at 37° C. for 18-24 hours on a rotary shaker incubator at 150 rpm. After incubation, MTT reagent was added to each well at a 10% sample volume. Synergy was determined on the lowest concentration of the combined drugs, which produced no purple coloring. Calculation of synergy was determined by the Fractional Inhibitory Concentration Index (FICI): FICI=([Drug 1]Synergy/[Drug1]MIC)+([Drug 2]Synergy/[Drug 2]MIC). FICI≦0.5 is an indication of synergy.
# (§2) TABLE 17 details the obtained FICI values for compound 1 in combination with varying antibiotics against MRSA, A. baumannii, and E. coli.
# A. baumannii = assay: Checkerboard assay (FICI); type: cell-based; details: with PMB
# Experimental: as §1, §2
# [1] = system: S. pyogenes (ATCC No. 8133); assay: Light-activated killing, colony counts; type: cell-based; details: for Dark Toxicity: no light; for Light Toxicity: white light 2 minutes
# Experimental: Dose-dependent effects of treating bacteria with compound 1 and irradiation with white light were assessed by treating 10^8 CFU/mL of cells with compound 1, followed by irradiation with white light for 2 minutes. Compound 1 was added at a specific concentration to 1 mL of a 10^8 CFU/mL suspension of the respective bacterial cells, and the cells were incubated at 37° C. for approximately 45 minutes on a rotary shaker at 150 rpm. 0.5 mL of the cell suspension was removed and placed into the wells of a sterile ceramic drop plate, and then the cells were irradiated with white light from a Lumacare™ LC 122A light source for 2 minutes at a distance of approximately 3 cm. The time and distance of the light application delivered about 85 J/cm^2 of 400-700 nm light to the sample. After being irradiated, ten-fold dilutions were made of each cell sample. The dilutions were drip-streaked onto a tryptic soy agar (TSA) plate and incubated at 37° C. for 18-24 hours. Enumeration of bacteria was determined from the dilution, which produced a drip-streak containing approximately 30-300 colonies. After counting the colonies, the CFU/mL was calculated by applying the respective dilution factor and a factor of 100 to account for the 10 μL of sample taken. Appropriate controls were prepared, including cells with no treatment, cells with only compound 1 added, and cells only treated with light.
# The error bars in FIG. 12 represent the variations between three replicate determinations.
# MRSA [2] = assay: Checkerboard assay (FICI); type: cell-based, S. aureus
# Experimental: as §1, §2
# S. aureus ATCC 29213 = assay: Resensitization to antibiotics (log reduction, TABLE 29); type: cell-based
# MCF7A = assay: Light-activated killing of cell lines (IC50 with/without light); type: cell-based
# Experimental: (§3) TABLE 15 depicts the IC50 of compounds in the presence or absence of light for human cell lines. The cell lines used were HeLa (human cervical adenocarcinoma), U-87 MG (human brain gliobastoma), MES-SA (human uterine sarcoma), MES-SA/D×5 (human uterine sarcoma grown in presence of doxorubicin), NCI-H441 (human lung papillary adenocarcinoma), A549 (human lung carcinoma), WI-38 (human embryonic lung normal), MCF7 (human breast adenocarcinoma), SW1088 (human brain astrocytoma), B16F10 (mouse skin melanoma), NIH-3T3 (mouse fibroblast), and Jurkat (human lymphoblastoma). “1-Sol” in TABLE 15 was generated by dissolving compound 1 and potassium hydroxide at a 1:1 ratio in a DMSO/water solution. The cells were irradiated with continuous white light using a LumaCare™ light source for 2 minutes at a distance of 6.5 cm from the cells.
# [3] = system: MES-SA (human uterine sarcoma); assay: as above; type: cell-based
# Experimental: as §3
# Trypanosoma cruzi = assay: Light-activated killing of parasites (MTT IC50); type: cell-based
# Experimental: Trypanosomes were cultured in LIT media+10% FBS. The compounds were added to create a dilution series and incubated with the trypanosomes for 1 hour. The trypanosomes were then irradiated with continuous white light for 2 minutes at a distance of 6.5 cm using a LumaCare™ light source.
# [4] = Stability of the formulation at 40° C. (dynamic light scattering); type: physicochemical; details: in DMSO
# Experimental: The stability of the formulation was determined using dynamic light scattering (DLS) to measure the mean size and standard deviation, both of which remained consistent. The experiments were repeated after the indicated periods, and the outcome of compound 1 photodynamic therapy was essentially the same in terms of cell killing.
# MRSA [5] = assay: Minimum bactericidal concentration (MBC) with and without white light; type: cell-based, S. aureus; details: Staphylococcus aureus, light or radiation study
# Experimental: The bacterial media was inoculated with bacteria and incubated overnight. The bacterial cultures were diluted to 5×10^8 CFU/mL using a McFarland latex turbidity standard (0.5). Compound 1 was diluted with sterile DMSO, which was added to the cell suspension in glass culture tubes. The cells were then incubated for 30 minutes at 37° C. on a rotary shaking incubator at 150 rpm. 500 μL of the treated cell suspension was added to a well on a sterile ceramic drop plate. Non-coherent white light from a Lumacare™ LC-122 unit was used to irradiate the samples. The end of the light probe was placed 3 cm above the sample well, perpendicular to the surface of the sample, and light was applied for 2 minutes (15 seconds light, 15 seconds dark). 200 μL of the irradiated sample was transferred to a 96-well plastic microtiter plate and five ten-fold dilutions were made in the media. 10 μL of each dilution was dripped onto an agar media plate and was allowed to streak down the plate by tilting the plate down. The agar plates were incubated at 37° C. overnight and colony counts were performed to calculate the CFU/mL.
# TABLE 14 details the MBC values of compounds 1-6 against MRSA with and without irradiation with white light. Irradiation involved treatment with a LumaCare™ light source at 3 cm from media for 1 min.
# [6] = 2 min, white light 2 minutes, read-out: Compound + light IC50
# [7] = no light, read-out: Compound IC50
structure (smiles),measurement,setting,value
Clc1ccc(/C=C/c2[nH]c3ccccc3c2/C=C/c2ccc(Cl)cc2)cc1 [Compound 1],Log Reduction,S. pyogenes ATCC 8133,6-7
same,FIC Index,E. coli,0.2
same,FIC Index,A. baumannii,0.1
same,Dark Toxicity,[1]; 0.1 μM,7.13 × 10^6 ± 1.10 × 10^6 CFU/mL
same,Light Toxicity,[1]; 0.1 μM,None Detected (<100 CFU/mL)
same,Dark Toxicity,[1]; 0.5 μM,1.40 × 10^6 ± 7.05 × 10^5 CFU/mL
same,Light Toxicity,[1]; 0.5 μM,None Detected (<100 CFU/mL)
same,Dark Toxicity,[1]; 1.0 μM,4.13 × 10^6 ± 9.07 × 10^5 CFU/mL
same,Light Toxicity,[1]; 1.0 μM,None Detected (<100 CFU/mL)
same,Dark Toxicity,[1]; 5.0 μM,5.01 × 10^5 ± 4.07 × 10^5 CFU/mL
same,Light Toxicity,[1]; 5.0 μM,None Detected (<100 CFU/mL)
same,FIC Index,MRSA [2]; with Amoxicillin,0.3
same,FIC Index,MRSA [2]; with Ampicillin,0.13
same,FIC Index,MRSA [2]; with Dicloxicillin,0.04
same,FIC Index,MRSA [2]; with Norfloxacin,0.3
same,FIC Index,MRSA [2]; with Tetracycline,0.4
same,Log Reduction,"S. aureus ATCC 29213; compound 1 μM, Light (2 min)",6
same,Log Reduction,"S. aureus ATCC 29213; compound 5 μM, Norfloxacin (0.5 μg/mL)",6
same,Log Reduction,"S. aureus ATCC 29213; compound 5 μM, Tetracycline (0.1 μg/mL)",5
same,IC50,MCF7A; [6],0.4 ± 0.01 µM
same,IC50,MCF7A; [7],24.5 ± 0.2 µM
same,IC50,[3]; [6],0.36 ± 0.05 µM
same,IC50,[3]; [7],42.7 ± 3.4 µM
same,IC50,"Trypanosoma cruzi; continuous white light 2 minutes, MTT 24 hours later, read-out: Compound + light IC50",< 0.5 µM
same,IC50,"Trypanosoma cruzi; no light, read-out: IC50",> 100 µM
same,Stability at 40° C.,[4],>2 months
same,MBC,"MRSA [5]; 1 min, LumaCare light source at 3 cm from media for 1 min, read-out: MBC with irradiation",1 µM
same,MBC,"MRSA [5]; no irradiation, read-out: MBC in the dark",200 µM
